Measured values: patent US10815274B2, “Immunogenic WT-1 peptides and methods of use thereof” (Memorial Sloan Kettering Cancer Center, priority 2012, dated 2020)
Where a SMILES comes first, the peptide text is derived from it.

What was measured:
WT1- leukemia = test: Cr51 release assay, cytotoxic CTL response vs WT1- leukemia; assay type: cell-based, human; details: 50:1 E:T
WT1+ leukemia = test: Cr51 release assay, cytotoxic CTL response vs WT1+ leukemia expressing restricting HLA allele; assay type: cell-based, human; details: 50:1 E:T
[1] = test system: WT1 peptide loaded autologous APC; test: Cr51 release assay, cytotoxic CTL response vs peptide loaded autologous APC; assay type: cell-based, human; details: 50:1 E:T
[2] = test system: WT1- allo APC with restricting HLA allele; test: Cr51 release assay, cytotoxic CTL response vs unloaded allogeneic APC sharing restricting HLA allele; assay type: cell-based, human; details: 50:1 E:T
[3] = test system: WT1+ allo APC with restricting HLA allele loaded with WT1 peptide; test: Cr51 release assay, cytotoxic CTL response vs peptide loaded allogeneic APC sharing restricting HLA allele (HLA restriction); details: 50:1 E:T
PHA blasts = test: Cr51 release assay, cytotoxic CTL response vs PHA blasts from the same leukemic patient; assay type: cell-based, human; details: 50:1 E:T, PHA blasts from same patients as the leukemia
WT1- autologous APC = test: Cr51 release assay, cytotoxic CTL response vs unmodified autologous APC; assay type: cell-based, human; details: 50:1 E:T

Row | SMILES | Cytotoxic CTL response, % vs WT1- leukemia (WT1- leukemia; HLA allele A0201) [%] | Cytotoxic CTL response, % vs WT1- leukemia (WT1- leukemia; HLA allele B4001) [%] | Cytotoxic CTL response, % vs WT1+ leukemia (WT1+ leukemia; HLA allele A0201) [%] | Cytotoxic CTL response, % vs WT1+ Leukemia (WT1+ leukemia; HLA allele B4001) [%] | Cytotoxic CTL response, % vs WT1+ leukemia (WT1+ leukemia; HLA allele B4001) [%] | Cytotoxic CTL response, % vs WT1 peptide loaded autologous APC ([1]; HLA allele A0201) [%] | Cytotoxic CTL response, % vs WT1 peptide loaded autologous APC ([1]; HLA allele B4001) [%] | Cytotoxic CTL response, % vs WT1- allo APC with restricting HLA allele ([2]; HLA allele A0201) [%] | Cytotoxic CTL response, % vs WT1- allo APC with restricting HLA allele ([2]; HLA allele B4001) [%] | Cytotoxic CTL response, % vs WT1+ allo APC with restricting HLA allele loaded with WT1 peptide ([3]; HLA allele A0201) [%] | Cytotoxic CTL response, % vs WT1+ allo APC with restricting HLA allele loaded with WT1 peptide ([3]; HLA allele B4001) [%] | Cytotoxic CTL response, % vs PHA blasts (PHA blasts; HLA allele B4001) [%] | Cytotoxic CTL response, % vs WT1- autologous APC (WT1- autologous APC; HLA allele A0201) [%] | Cytotoxic CTL response, % vs WT1- autologous APC (WT1- autologous APC; HLA allele B4001) [%] | Cytotoxic CTL response, % vs WT1+ Leukemia (WT1+ leukemia; HLA allele A0201) [%] | Cytotoxic CTL response, % vs PHA blasts (PHA blasts; HLA allele A0201) [%] | also measured
1 | CC(C)C[C@H](NC(=O)[C@H](CO)NC(=O)CNC(=O)[C@H](Cc1ccc(O)cc1)NC(=O)[C@H](C)NC(=O)[C@@H](N)CO)C(=O)NCC(=O)NCC(=O)N1CCC[C@H]1C(=O)O [SEQ ID NO: 157] (H-SAYGSLGGP-OH; N-terminus and C-terminus assumed) | 0 | 3 | 0 | 68 | 68 | 51 | 41 | 5 | 8 | 31 | 24 | 3 | 2 | 2 | – | – | –
2 | CC(C)C[C@H](NC(=O)[C@@H](N)CCCCN)C(=O)NCC(=O)N[C@@H](C)C(=O)N[C@@H](C)C(=O)N[C@@H](CCC(=O)O)C(=O)N[C@@H](C)C(=O)N[C@@H](CO)C(=O)N[C@@H](C)C(=O)O [SEQ ID NO: 150] (H-KLGAAEASA-OH; N-terminus and C-terminus assumed) | 10 | – | 37 | – | – | 41 | – | 2 | – | 22 | – | – | 3 | – | 37 | 8 | –
3 | CSCC[C@H](NC(=O)[C@H](CCC(N)=O)NC(=O)[C@H](CCC(N)=O)NC(=O)[C@@H]1CCCN1C(=O)[C@H](CCC(=O)O)NC(=O)[C@H](CO)NC(=O)CNC(=O)[C@H](CO)NC(=O)[C@H](C)N)C(=O)O [SEQ ID NO: 151] (H-ASGSEPQQM-OH; N-terminus and C-terminus assumed) | – | – | – | – | – | – | – | – | – | – | – | – | – | – | – | – | Cytotoxic CTL response, % vs WT1- leukemia (WT1- leukemia; HLA allele B3501): 5%; Cytotoxic CTL response, % vs WT1+ Leukemia (WT1+ leukemia; HLA allele B3501): 39%; Cytotoxic CTL response, % vs WT1+ leukemia (WT1+ leukemia; HLA allele B3501): 39%; Cytotoxic CTL response, % vs WT1 peptide loaded autologous APC ([1]; HLA allele B3501): 73%; Cytotoxic CTL response, % vs WT1- allo APC with restricting HLA allele ([2]; HLA allele B3501): 3%; Cytotoxic CTL response, % vs WT1+ allo APC with restricting HLA allele loaded with WT1 peptide ([3]; HLA allele B3501): 51%; Cytotoxic CTL response, % vs PHA blasts (PHA blasts; HLA allele B3501): 9%; Cytotoxic CTL response, % vs WT1- autologous APC (WT1- autologous APC; HLA allele B3501): 5%
4 | C[C@@H](O)[C@H](N)C(=O)N[C@@H](Cc1c[nH]cn1)C(=O)N[C@@H](CO)C(=O)N1CCC[C@H]1C(=O)N[C@H](C(=O)N[C@@H](Cc1c[nH]cn1)C(=O)N1CCC[C@H]1C(=O)N1CCC[C@H]1C(=O)N[C@@H](CCCNC(=N)N)C(=O)O)[C@@H](C)O [SEQ ID NO: 146] (H-THSPTHPPR-OH; N-terminus and C-terminus assumed) | 0 | 3 | 38 | 65 | 65 | 50 | 45 | 1 | 0 | 21 | 31 | 5 | 2 | 0 | 38 | 3 | –
